Data on four molecules can be found in patent US12617812B2, “Platinum(IV) complexes, methods of manufacture, compositions containing, and methods of use thereof” (City University of Hong Kong, priority 2021, dated 2026).

Some results are limits rather than exact numbers.

The subject of experiment [1] is Human ovarian carcinoma A2780 cells. As to the kind of experiment: MTT cytotoxicity test, A2780 cells. The class given is cell-based. The following applies: 6 h treatment. As to the method: (§1) Human lung carcinoma A549 cells (American Type Culture Collection, ATCC), and cisplatin-resistant A549cisR cells (American Type Culture Collection, ATCC) are cultured in DMEM with 10% FBS and 100 µg/mL penicillin/streptomycin. Human ovarian carcinoma A2780 and cisplatin-resistant A2780cisR cells are cultured in RPMI-1640 with 10% FBS, 1% L-Glutamine, and 100 µg/mL penicillin/streptomycin. Human lung fibroblast MRC-5 cells (American Type Culture Collection, ATCC) are cultured in MEM with 10% FBS, 1% NEAA, 1% L-Glutamine, 1% sodium pyruvate, and 100 µg/mL penicillin/streptomycin. For A2780cisR and A549cisR cells, 2 μM of cisplatin is added into the culture medium after the attachment to maintain the resistance. All the cells are cultured at 37° C. in 5% CO2.
(§2) The cytotoxic profiles of the various complexes against selected cell lines are obtained by a 3-(4,5-Dimethylthiazol-2-yl)-2,5-diphenyltetrazolium bromide (MTT) assay. Cells are seeded into 96-well plates at a density of 2,500 cells per well (for A549, and A2780) or 5,000 cells per well (for A549cisR, A2780cisR, and MRC-5) and incubated for 24 h. Cells are then treated with medium containing various concentrations of complexes for 6 h. The medium is replaced by phenol-red free medium. Then cells are irradiated with near-infrared radiation (880 nm, 0.4 W/cm^2) for 80 min. After irradiation, cells are further incubated in fresh medium for 18 h at 37° C. Then, the culture medium is removed, cells are then incubated with FBS free medium containing 1 mg/mL MTT for 2 h. Medium containing MTT is removed and 150 μL DMSO is added to each well. The absorbance is measured at 570 and 630 nm. […]

Experiment [2] deals with cisplatin-resistant A2780cisR cells. The experiment in a line: MTT cytotoxicity test, A2780cisR cells. The class given is cell-based, Human. The following applies: 6 h treatment. Here is the method:
as §1, §2
On the technique in general: Formazan colour is commonly taken as a measure of viable cells.

Experiment [3] has as its system Human lung carcinoma A549 cells. The experiment in a line: MTT cytotoxicity test, A549 cells. The format is cell-based. The following applies: 6 h treatment. Here is the method:
as §1, §2

For experiment [4], the system named is cisplatin-resistant A549cisR cells. The experiment in a line: MTT cytotoxicity test, A549cisR cells. The class given is cell-based, Human. The following applies: 6 h treatment. Here is the method:
as §1, §2

Experiment [5] has as its system Human lung fibroblast MRC-5 cells. The experiment in a line: MTT cytotoxicity test, MRC-5 cells. Conditions: in the dark with no irradiation, 6 h treatment. The class given is cell-based. Here is the method: as §1
The cytotoxic profiles of the various complexes against selected cell lines are obtained by a 3-(4,5-Dimethylthiazol-2-yl)-2,5-diphenyltetrazolium bromide (MTT) assay. Cells are seeded into 96-well plates at a density of 2,500 cells per well (for A549, and A2780) or 5,000 cells per well (for A549cisR, A2780cisR, and MRC-5) and incubated for 24 h. Cells are then treated with medium containing various concentrations of complexes for 6 h. The medium is replaced by phenol-red free medium. Then cells are irradiated with near-infrared radiation (880 nm, 0.4 W/cm^2) for 80 min. After irradiation, cells are further incubated in fresh medium for 18 h at 37° C. Then, the culture medium is removed, cells are then incubated with FBS free medium containing 1 mg/mL MTT for 2 h. Medium containing MTT is removed and 150 μL DMSO is added to each well. The absorbance is measured at 570 and 630 nm.
Cells are treated with the indicated complex for 6 h, the culture medium is replaced with fresh medium and irradiated with or without blue light for 1 h. Then cells are cultured for another 42 h.

The mark [6] stands for this setting: in the dark with no irradiation.
The mark [7] stands for this setting: mark * (dark), position of the irradiated row.
Setting [8] is: A2780cisR*, in the dark with no irradiation.
[9] abbreviates: A549*, in the dark with no irradiation.
Setting [10] is: A549cisR*, in the dark with no irradiation.

On to `O=C1[O][Pt]2([NH][C@@H]3CCCC[C@H]3[NH]2)[O]C1=O` [Oxaliplatin, reference compound], for which the IC50 (usually the midpoint of a concentration-inhibition curve) is 86.5 ± 7.7 µM in experiment [1] (setting [6]); 73.7 ± 5.9 µM in experiment [1] (setting [7]); 254 ± 18.2 µM in experiment [2] (A2780cisR**, with irradiation); 250 ± 12.6 µM in experiment [2] (setting [8]); 104 ± 8.2 µM in experiment [3] (A549**, with irradiation); 97.2 ± 7.5 µM in experiment [3] (setting [9]). The IC50 in experiment [4] (A549cisR**, with irradiation) was found to be 269 ± 16.3 µM; in experiment [4] (setting [10]), 258 ± 11.6 µM; in experiment [5], 213 ± 16.4 µM.
For `N.N.O=C([O-])C1(C(=O)[O-])CCC1.[Pt+2]` [Carboplatin, reference compound], the IC50 was 303 ± 34.8 µM in experiment [1] (setting [6]); 336 ± 43.8 µM in experiment [1] (setting [7]); 630 ± 43.2 µM in experiment [2] (A2780cisR**, with irradiation); 668 ± 51.1 µM in experiment [2] (setting [8]); 435 ± 42.9 µM in experiment [3] (A549**, with irradiation); 418 ± 33.6 µM in experiment [3] (setting [9]). The IC50 in experiment [4] (A549cisR**, with irradiation) was more than 700 µM; in experiment [4] (setting [10]), more than 700 µM; in experiment [5] it was 690 ± 38.5 µM.
For the molecule `CCN(CC)c1ccc2cc(C(=O)/C=C/c3ccc(N(C)CCC(=O)[O][Pt]4([NH2])([NH2])([O]C(=O)Cc5cccc6c(=O)c7ccc(C)c(C)c7oc56)[O]C(=O)C5(CCC5)C(=O)[O]4)cc3)c(=O)oc2c1` [Complex 6], the IC50 is more than 50 µM in experiment [1] (setting [6]); 11.4 ± 1.5 µM in experiment [1] (setting [7]); 12.7 ± 1.9 µM in experiment [2] (A2780cisR**, with irradiation); more than 50 µM in experiment [2] (setting [8]); 11.6 ± 1.2 µM in experiment [3] (A549**, with irradiation); more than 50 µM in experiment [3] (setting [9]). Moreover, the IC50 in experiment [4] (A549cisR**, with irradiation) was 12.6 ± 2.1 µM; in experiment [4] (setting [10]), more than 50 µM; in experiment [5], more than 50 µM.
As to `CCN(CC)c1ccc2cc(C(=O)/C=C/c3ccc(N(C)CCC(=O)[O][Pt]4([NH2])([NH2])([OH])[O]C(=O)C5(CCC5)C(=O)[O]4)cc3)c(=O)oc2c1` [Complex 4], the IC50 is more than 50 µM in experiment [1] (setting [6]); 10.7 ± 2.2 µM in experiment [1] (setting [7]); 11.2 ± 2.8 µM in experiment [2] (A2780cisR**, with irradiation); more than 50 µM in experiment [2] (setting [8]); 17.7 ± 5.1 µM in experiment [3] (A549**, with irradiation); more than 50 µM in experiment [3] (setting [9]). Besides, the IC50 is 18.9 ± 4.3 µM in experiment [4] (A549cisR**, with irradiation); more than 50 µM in experiment [4] (setting [10]); more than 50 µM in experiment [5].
